Laboratory results published in publication PMC8828861 (Communications Biology, 2022).

Target: M. tuberculosis Rho (MtbRho) (Mycobacterium tuberculosis, UniProt P9WHF3, M495L)
Assay type: biochemical

## Nc1ncnc2c1ncn2[C@@H]1O[C@H](COP(=O)(O)OP(=O)(O)OP(=O)(O)O)[C@@H](O)[C@H]1O [ATP]
  TLC NTP hydrolysis assay with poly[rC]: the M495L mutant hydrolyses ATP at a steady-state rate similar to that measured for EcRho
